# ChEMBL document CHEMBL1201862, “PubChem BioAssay data set” (2004)
# Calls of active or inactive are those of the source.
# Assays:
# [1] = biological target: T1, Leucine aminopeptidase (Plasmodium falciparum 3D7, UniProt Q8IL11); experiment: P. falciparum M17LAP inhibitors, primary screen, biochemical, fluorogenic H-Leu-NHMec substrate, 1536-well (AID 1619); type: functional
# T1 sequence (Q8IL11 whole entry): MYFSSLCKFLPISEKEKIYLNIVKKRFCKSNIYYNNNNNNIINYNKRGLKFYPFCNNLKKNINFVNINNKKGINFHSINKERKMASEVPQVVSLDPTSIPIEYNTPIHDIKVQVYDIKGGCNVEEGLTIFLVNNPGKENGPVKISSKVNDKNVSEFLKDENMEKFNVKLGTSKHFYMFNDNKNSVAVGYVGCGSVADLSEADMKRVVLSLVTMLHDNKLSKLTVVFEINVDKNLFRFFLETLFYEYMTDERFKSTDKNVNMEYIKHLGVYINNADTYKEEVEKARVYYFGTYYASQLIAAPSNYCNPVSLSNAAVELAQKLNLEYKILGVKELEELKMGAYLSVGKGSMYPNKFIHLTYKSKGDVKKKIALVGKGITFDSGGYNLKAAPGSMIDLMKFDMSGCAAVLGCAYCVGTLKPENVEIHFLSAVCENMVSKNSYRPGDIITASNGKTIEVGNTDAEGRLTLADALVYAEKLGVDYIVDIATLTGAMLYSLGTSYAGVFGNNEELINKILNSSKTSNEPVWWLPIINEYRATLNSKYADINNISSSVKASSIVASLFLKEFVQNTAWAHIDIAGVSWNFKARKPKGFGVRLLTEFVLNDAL
# [2] = biological target: Serine/threonine-protein phosphatase (Candida dubliniensis (strain CD36 / CBS 7987 / NCPF 3949 / NRRLY-17841) (Yeast), UniProt B9W6M3); experiment: calcineurin pathway inhibitors in yeast reporter, dose response, S. cerevisiae, CDRE-lacZ, luminescence, secondary (AID 2388); type: functional, cell-based;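 also: yeast reporter cells carrying a calcineurin-responsive lacZ construct stimulated with calcium chloride; luminescent beta-galactosidase reporter signal in whole cells rather than isolated phosphatase activity; potency for inhibition where a drop in reporter signal means calcineurin blockade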
# [3] = biological target: ATP-dependent molecular chaperone HSP82 (Candida albicans (strain WO-1) (Yeast), UniProt C4YTQ8); experiment: loss of DOC-induced GRE-beta-galactosidase reporter signal, dose response, Hsp90 inhibitor project, S. cerevisiae, luminescence (AID 2400); type: functional, cell-based;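 also: beta-galactosidase luminescence from glucocorticoid response element reporter as proxy for Hsp90 function; inhibitor potency where signal loss means Hsp90 inhibition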
# [4] = tested on: HEK293; experiment: inhibitors of LMP1-driven NF-kB reporter, dose response, cell-based, HEK293, luciferase, cherry-pick (AID 588343); type: functional; settings: Homo sapiens
# [5] = biological target: Dual specificity tyrosine-phosphorylation-regulated kinase 1A (Rattus norvegicus, UniProt Q63470); type: biochemical, Homo sapiens
# [6] = biological target: T2, DNA repair and recombination protein RAD54-like (Homo sapiens, UniProt Q92698); experiment: inhibitors of human RAD54 branch migration, confirmation, biochemical, fluorescence, cherry-picked samples, dose series (AID 651657); type: functional
# T2 sequence (Q92698 whole entry): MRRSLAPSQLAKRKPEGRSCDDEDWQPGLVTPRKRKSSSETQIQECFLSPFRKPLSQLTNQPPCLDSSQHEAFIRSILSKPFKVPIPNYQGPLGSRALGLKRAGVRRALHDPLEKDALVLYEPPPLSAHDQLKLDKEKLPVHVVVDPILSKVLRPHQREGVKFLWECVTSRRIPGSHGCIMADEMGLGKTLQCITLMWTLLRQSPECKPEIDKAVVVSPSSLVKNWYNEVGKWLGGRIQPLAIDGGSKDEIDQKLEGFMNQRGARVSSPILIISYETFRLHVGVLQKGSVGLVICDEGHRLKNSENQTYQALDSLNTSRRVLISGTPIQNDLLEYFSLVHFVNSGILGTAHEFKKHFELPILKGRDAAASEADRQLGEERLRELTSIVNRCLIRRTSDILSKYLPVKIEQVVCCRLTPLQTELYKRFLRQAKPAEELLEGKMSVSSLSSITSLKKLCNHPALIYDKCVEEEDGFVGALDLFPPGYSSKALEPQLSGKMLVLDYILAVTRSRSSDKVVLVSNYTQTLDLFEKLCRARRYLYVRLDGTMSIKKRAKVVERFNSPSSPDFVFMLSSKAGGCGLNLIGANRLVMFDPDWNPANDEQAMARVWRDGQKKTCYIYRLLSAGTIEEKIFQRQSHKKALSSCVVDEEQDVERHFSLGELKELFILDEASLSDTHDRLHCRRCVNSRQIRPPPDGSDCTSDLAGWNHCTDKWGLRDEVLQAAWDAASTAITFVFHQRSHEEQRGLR
# [7] = biological target: T3, DNA repair protein RAD52 homolog (Homo sapiens, UniProt P43351); type: functional, biochemical
# T3 sequence (P43351 whole entry): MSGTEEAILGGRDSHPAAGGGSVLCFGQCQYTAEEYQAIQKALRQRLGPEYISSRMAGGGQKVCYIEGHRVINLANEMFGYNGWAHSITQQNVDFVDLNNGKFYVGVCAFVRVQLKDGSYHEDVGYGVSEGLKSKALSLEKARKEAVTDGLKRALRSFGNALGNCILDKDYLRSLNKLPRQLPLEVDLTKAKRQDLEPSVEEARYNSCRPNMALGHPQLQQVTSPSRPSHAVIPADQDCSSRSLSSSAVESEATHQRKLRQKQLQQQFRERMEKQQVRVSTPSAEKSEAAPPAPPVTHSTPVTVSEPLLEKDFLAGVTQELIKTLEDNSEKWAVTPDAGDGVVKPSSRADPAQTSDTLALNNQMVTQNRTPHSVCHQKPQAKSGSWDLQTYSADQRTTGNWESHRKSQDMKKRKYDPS
# [8] = inhibitors of intracellular T. cruzi replication, confirmation, NIH3T3 host cells, beta-gal luminescence (AID 2044); type: functional, cell-based;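 also: intracellular parasites grown in NIH/3T3 mouse fibroblasts as host cells; luminescent beta-galactosidase reporter signal from transgenic T. cruzi replicating inside host cells; inhibitors lower the luminescence signal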
# [9] = cytotoxicity toward NIH3T3 fibroblasts, dose response, counter-screen, cell-based, ATP luminescence, mouse fibroblasts (AID 2010); type: functional;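 also: cells exposed to compound for about 90 hours before reading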
# [10] = biological target: T4, Beta-galactosidase (Escherichia coli, UniProt Q8VNN2); experiment: beta-galactosidase enzyme inhibitors and activators, dose response, artefact control for CCR6 antagonist project, biochemical, E. coli enzyme, set 3 (AID 504712); type: functional
# [11] = biological target: T5, Hexokinase HKDC1 (Homo sapiens, UniProt Q2TB90); experiment: HKDC1 hexokinase inhibitors, dose response, biochemical, W721R variant (AID 504729); type: functional
# T5 sequence (Q2TB90 whole entry): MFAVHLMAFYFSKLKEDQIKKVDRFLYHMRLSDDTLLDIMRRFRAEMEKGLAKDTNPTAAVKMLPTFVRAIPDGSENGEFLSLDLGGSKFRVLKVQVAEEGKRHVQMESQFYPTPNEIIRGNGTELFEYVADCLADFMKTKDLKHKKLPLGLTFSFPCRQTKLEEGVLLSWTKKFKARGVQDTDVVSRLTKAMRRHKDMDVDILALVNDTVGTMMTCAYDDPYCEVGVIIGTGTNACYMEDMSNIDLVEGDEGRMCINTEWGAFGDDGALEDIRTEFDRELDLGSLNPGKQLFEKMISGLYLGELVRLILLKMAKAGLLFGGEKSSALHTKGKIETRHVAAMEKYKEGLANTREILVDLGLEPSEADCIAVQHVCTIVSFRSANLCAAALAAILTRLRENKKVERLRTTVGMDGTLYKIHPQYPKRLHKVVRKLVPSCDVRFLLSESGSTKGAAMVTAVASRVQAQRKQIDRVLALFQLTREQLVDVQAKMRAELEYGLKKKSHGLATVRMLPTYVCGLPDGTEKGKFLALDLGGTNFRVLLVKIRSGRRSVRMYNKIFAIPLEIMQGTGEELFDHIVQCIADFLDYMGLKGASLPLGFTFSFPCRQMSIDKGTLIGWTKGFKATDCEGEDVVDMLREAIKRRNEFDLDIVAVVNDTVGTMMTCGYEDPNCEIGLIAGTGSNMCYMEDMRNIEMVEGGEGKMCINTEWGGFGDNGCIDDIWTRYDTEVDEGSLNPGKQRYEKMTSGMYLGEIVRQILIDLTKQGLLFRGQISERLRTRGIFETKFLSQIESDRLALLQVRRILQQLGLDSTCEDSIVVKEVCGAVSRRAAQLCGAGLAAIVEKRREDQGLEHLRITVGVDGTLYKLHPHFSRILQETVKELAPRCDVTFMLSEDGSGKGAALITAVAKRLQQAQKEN
# [12] = tested on: Vero; experiment: Vero cell cytotoxicity, cytotoxicity control for flavivirus capping enzyme inhibitors (AID 588742); type: functional; settings: Chlorocebus sabaeus
# [13] = biological target: Beta-arrestin-1 (Homo sapiens, UniProt P49407); experiment: inhibitors of arrestin peptide binding to AP2, dose response, biochemical, cherry pick 1, beta2-adaptin appendage, flow cytometry (AID 588783); type: functional
# [14] = biological target: Genome polyprotein (dengue virus type 2, UniProt P29990); experiment: Dengue-2 NS5 methyltransferase inhibitors, primary screen, biochemical, confirmation dose response (AID 588689); type: functional
# [15] = biological target: T6, Polyadenylate-binding protein 1 (Homo sapiens, UniProt P11940); experiment: PABP1 MLLE–PAM2 interaction inhibitors, dose response, miRNA deadenylation inhibitor project, biochemical, fluorescence polarization, Cy5-PAM2 peptide, secondary (AID 602260); type: functional; settings: read-out: IC50_Mean
# [16] = biological target: T6, Polyadenylate-binding protein 1; experiment: PABP1 MLLE–PAM2 binding inhibitor potency, dose response, biochemical, fluorescence polarization, FITC-PAM2 peptide (AID 602259); type: functional; settings: read-out: IC50_Mean
# [17] = biological target: T7, Rac GTPase-activating protein 1 (Homo sapiens, UniProt Q9H0H5); experiment: MgcRacGAP GTPase-activating activity inhibitors, confirmation, biochemical, ADP Hunter fluorescence, primary and confirmatory (AID 624330); type: functional
# T7 sequence (Q9H0H5 whole entry): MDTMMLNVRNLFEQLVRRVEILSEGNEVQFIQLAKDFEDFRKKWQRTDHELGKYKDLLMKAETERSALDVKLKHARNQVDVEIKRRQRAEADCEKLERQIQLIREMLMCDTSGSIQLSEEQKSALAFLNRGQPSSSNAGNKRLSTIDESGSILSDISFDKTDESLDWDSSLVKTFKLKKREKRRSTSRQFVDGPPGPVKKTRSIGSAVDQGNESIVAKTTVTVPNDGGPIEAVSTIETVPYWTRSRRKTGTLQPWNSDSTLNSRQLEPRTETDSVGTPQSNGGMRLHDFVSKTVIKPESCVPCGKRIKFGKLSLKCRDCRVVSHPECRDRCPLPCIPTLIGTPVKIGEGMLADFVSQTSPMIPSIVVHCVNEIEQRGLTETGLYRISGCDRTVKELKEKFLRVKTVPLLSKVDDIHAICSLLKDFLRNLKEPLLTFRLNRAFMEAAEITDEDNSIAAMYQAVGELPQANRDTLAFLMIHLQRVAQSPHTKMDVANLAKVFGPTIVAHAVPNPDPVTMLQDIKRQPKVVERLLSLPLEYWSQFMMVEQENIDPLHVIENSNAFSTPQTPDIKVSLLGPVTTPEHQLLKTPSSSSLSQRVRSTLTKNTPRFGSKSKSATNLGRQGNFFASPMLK
# [18] = tested on: Jurkat; experiment: SAR Analysis of small molecule inhibitors of […] specific antigen receptor-induced NF-kB activation in a Jurkat cell line using a luminescence assay - Set 3. [Related pubchem assays (depositor defined):AID435022, AID435025, AID465]; type: functional, cell-based; settings: Homo sapiens
# [19] = tested on: HEK293; experiment: SAR Analysis of small molecule inhibitors of B-cell specific antigen receptor-induced NF-kB activation in a HEK-293T cell line using a luminescence assay - Set 2. [Related pubchem assays (depositor defined):AID435022, AID435025, AID489021]; type: functional, cell-based; settings: Homo sapiens
# [20] = tested on: HEK293; experiment: cytotoxicity in HEK293T NF-kB-Luc cells, SAR follow-up, cytotoxicity control for NF-kB activator project, cell-based, resazurin fluorescence (AID 493251); type: functional; settings: Homo sapiens
# [21] = biological target: Luciferin 4-monooxygenase (Photinus pyralis, UniProt P08659); experiment: firefly luciferase enzyme inhibitors, dose response, biochemical, luminescence (AID 1891)
# [22] = Luminescence Cell-Based Dose Confirmation HTS to Identify Inhibitors of Platelet Dense Granule Release. [Related pubchem assays: 1663 (Primary HTS), 1678 (Summary of Project)]; type: functional
# [23] = biological target: Cysteine protease ATG4B (Homo sapiens, UniProt Q9Y4P1); type: functional;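 also: Fluorescence-based dose-response confirmation assay measuring inhibition of ATG4B activity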
# [24] = biological target: Phospholipase A2 (Homo sapiens, UniProt P04054); type: functional;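 also: confirmatory dose-response counterscreen on phospholipase A2, testing hits that came from an ultra-high-throughput screen for ATG4B inhibitors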
# [25] = biological target: T4, Beta-galactosidase; experiment: PubChem AID 485352; type: functional
# [26] = biological target: Epstein-Barr nuclear antigen 1 (Epstein-Barr virus (strain B95-8) (HHV-4) (Human herpesvirus 4), UniProt P03211); experiment: EBNA-1 inhibitors, dose response, biochemical, fluorescence polarization, 1536-well (AID 2381); design: species or system human gammaherpesvirus 4;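 also: fluorescence polarization of a Cy5 DNA probe bound by EBNA-1 protein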
# [27] = biological target: Type-1 angiotensin II receptor (Homo sapiens, UniProt P30556); experiment: AT1 receptor antagonists, dose response, selectivity assay for APJ receptor antagonist project, cell-based, uHTS hits (AID 463214); type: functional;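 also: antagonist potency against angiotensin II stimulated AT1 response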
# [28] = biological target: Lytic switch protein BZLF1 (Epstein-Barr virus (strain B95-8) (HHV-4) (Human herpesvirus 4), UniProt P03206); experiment: EBV ZTA inhibitors, dose response, counter-screen for EBNA-1 inhibitor project, biochemical, fluorescence polarization, Epstein-Barr virus, 1536-well (AID 2377); design: species or system human gammaherpesvirus 4;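 also: fluorescence polarization of Cy5-labelled ZRE DNA probe bound by purified Zta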
# Lytic switch protein BZLF1, sequence (P03206 whole entry): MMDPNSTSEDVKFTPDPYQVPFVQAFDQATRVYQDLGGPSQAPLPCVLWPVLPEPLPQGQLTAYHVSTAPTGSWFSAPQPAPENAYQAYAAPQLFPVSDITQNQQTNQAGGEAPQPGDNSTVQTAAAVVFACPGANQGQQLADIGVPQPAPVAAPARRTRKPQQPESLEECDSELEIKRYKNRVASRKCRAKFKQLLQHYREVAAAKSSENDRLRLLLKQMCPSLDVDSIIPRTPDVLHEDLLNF
# T4 sequence (Q8VNN2 whole entry): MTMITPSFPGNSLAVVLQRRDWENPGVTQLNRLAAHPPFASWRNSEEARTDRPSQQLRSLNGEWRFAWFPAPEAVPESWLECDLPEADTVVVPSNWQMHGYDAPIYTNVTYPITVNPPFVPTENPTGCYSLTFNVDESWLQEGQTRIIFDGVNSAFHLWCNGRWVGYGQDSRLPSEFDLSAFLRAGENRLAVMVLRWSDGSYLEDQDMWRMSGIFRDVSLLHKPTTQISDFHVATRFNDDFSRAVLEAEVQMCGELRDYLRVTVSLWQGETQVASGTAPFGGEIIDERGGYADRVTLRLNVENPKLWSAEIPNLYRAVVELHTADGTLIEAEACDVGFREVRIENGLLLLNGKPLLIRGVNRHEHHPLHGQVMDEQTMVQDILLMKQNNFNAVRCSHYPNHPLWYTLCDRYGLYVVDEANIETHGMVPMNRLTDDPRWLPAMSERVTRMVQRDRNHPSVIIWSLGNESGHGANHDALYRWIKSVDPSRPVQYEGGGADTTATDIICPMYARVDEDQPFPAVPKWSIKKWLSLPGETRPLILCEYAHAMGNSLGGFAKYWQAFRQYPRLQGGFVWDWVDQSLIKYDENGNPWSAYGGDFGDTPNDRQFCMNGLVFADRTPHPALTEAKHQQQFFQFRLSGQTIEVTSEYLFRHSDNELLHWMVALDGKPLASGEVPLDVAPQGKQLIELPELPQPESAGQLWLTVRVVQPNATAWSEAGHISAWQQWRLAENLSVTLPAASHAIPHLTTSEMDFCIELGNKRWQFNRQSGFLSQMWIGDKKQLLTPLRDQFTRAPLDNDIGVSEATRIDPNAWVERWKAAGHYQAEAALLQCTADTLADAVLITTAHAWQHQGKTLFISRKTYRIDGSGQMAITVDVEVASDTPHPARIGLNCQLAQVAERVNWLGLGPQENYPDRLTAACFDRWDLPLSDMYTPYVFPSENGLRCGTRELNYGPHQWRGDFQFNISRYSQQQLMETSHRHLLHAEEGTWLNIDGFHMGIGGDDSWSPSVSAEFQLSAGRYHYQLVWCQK
# T6 sequence (P11940 whole entry): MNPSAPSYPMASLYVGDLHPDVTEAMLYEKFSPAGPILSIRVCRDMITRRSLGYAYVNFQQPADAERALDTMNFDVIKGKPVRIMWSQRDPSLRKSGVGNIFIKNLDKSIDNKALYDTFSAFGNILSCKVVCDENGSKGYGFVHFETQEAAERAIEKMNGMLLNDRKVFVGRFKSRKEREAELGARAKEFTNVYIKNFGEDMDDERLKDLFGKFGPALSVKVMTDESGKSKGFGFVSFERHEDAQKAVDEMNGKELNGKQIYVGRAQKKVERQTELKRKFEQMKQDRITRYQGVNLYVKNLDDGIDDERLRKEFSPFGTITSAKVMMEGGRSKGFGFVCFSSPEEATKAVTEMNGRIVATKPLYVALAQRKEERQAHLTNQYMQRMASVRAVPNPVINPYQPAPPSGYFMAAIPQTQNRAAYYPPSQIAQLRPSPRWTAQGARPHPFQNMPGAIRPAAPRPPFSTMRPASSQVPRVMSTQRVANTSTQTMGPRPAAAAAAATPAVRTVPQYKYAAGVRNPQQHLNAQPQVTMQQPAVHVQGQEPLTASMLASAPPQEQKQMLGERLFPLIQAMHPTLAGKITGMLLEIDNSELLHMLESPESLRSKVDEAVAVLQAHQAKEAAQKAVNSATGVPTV
# Luciferin 4-monooxygenase, sequence (P08659 whole entry): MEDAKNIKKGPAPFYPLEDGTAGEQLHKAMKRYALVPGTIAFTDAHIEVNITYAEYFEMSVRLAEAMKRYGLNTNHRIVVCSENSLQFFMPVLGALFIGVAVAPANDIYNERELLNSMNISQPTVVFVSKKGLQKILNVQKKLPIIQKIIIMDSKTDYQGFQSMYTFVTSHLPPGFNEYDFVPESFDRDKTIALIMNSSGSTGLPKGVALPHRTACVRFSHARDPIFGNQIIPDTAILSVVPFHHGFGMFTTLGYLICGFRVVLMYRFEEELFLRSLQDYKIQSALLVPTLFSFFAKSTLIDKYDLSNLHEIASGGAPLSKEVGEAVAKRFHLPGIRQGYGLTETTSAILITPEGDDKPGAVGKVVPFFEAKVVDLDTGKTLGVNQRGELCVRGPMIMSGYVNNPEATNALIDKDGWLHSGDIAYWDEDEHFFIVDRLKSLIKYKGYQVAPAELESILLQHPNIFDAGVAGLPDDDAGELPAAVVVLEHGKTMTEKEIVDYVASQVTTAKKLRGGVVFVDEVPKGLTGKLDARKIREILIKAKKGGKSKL
# Epstein-Barr nuclear antigen 1, sequence (P03211 whole entry): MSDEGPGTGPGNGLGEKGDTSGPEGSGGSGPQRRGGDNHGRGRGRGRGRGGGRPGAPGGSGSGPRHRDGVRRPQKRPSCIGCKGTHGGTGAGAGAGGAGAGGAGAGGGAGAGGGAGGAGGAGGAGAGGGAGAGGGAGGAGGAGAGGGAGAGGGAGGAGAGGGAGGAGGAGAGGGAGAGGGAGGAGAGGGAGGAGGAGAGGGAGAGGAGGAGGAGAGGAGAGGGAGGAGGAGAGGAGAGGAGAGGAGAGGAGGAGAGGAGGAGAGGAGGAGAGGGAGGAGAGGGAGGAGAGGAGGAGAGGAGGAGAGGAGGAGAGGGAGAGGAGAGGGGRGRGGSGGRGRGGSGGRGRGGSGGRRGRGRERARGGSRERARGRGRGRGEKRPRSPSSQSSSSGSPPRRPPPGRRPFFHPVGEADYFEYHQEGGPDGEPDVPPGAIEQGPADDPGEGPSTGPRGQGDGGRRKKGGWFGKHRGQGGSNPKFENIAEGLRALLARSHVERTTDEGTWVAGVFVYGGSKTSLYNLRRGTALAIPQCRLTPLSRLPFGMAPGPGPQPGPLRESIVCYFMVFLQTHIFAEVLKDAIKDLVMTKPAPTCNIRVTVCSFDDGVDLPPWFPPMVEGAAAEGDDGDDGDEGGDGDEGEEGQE
# Serine/threonine-protein phosphatase, sequence (B9W6M3 whole entry): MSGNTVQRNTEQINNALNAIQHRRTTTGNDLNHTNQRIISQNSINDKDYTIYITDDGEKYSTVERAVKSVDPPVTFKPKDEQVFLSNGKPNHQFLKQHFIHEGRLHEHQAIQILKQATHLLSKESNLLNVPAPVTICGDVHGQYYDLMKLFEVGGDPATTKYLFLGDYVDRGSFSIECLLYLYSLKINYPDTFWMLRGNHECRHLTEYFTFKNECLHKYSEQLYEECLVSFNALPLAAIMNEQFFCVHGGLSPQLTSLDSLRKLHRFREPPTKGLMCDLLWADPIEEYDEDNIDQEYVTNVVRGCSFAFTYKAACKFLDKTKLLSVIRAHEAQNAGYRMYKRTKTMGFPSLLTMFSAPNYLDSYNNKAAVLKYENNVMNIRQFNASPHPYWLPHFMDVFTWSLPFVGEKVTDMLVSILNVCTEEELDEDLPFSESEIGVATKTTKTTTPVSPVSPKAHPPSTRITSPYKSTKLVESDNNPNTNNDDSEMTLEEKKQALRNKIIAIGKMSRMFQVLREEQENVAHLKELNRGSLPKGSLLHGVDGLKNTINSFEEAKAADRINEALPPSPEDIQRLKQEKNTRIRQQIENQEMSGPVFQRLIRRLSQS
# ATP-dependent molecular chaperone HSP82, sequence (C4YTQ8 whole entry): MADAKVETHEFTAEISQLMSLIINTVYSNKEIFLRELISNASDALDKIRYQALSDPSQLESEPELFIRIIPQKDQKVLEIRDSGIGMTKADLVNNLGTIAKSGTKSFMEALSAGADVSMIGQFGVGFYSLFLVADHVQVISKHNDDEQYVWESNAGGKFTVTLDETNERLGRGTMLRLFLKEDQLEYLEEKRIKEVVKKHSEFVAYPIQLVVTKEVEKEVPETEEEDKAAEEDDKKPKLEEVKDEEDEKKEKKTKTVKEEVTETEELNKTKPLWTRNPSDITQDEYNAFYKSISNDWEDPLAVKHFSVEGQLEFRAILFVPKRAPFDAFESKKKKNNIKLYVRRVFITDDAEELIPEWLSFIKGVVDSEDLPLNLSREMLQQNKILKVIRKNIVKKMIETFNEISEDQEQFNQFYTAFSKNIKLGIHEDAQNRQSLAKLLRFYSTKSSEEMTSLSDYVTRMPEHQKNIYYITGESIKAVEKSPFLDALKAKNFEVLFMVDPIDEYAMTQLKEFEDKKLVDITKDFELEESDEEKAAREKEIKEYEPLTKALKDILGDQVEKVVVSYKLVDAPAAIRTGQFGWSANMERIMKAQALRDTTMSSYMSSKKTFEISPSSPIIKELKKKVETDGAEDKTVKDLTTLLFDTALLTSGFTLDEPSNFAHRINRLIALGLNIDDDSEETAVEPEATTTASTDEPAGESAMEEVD
# Phospholipase A2, sequence (P04054 whole entry): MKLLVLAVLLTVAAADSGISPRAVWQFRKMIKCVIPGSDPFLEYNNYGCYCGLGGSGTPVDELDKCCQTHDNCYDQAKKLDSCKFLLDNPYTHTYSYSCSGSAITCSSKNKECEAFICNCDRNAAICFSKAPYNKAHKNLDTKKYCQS
# Beta-arrestin-1, sequence (P49407 whole entry): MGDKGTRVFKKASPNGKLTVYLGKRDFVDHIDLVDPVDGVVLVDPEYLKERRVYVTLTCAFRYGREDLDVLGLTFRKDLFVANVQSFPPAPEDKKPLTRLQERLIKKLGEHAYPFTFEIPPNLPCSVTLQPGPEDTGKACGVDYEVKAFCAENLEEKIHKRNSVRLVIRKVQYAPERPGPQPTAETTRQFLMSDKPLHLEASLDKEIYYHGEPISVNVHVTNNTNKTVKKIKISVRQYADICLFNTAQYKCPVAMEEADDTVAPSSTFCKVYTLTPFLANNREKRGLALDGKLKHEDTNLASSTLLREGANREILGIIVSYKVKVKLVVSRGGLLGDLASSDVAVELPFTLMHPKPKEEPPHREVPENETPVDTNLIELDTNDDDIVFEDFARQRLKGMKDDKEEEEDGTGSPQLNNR
smiles,measurement,setting,value
COc1ccc(-n2c(-c3cccc(C)c3[N+](=O)[O-])n[nH]c2=S)cc1,IC50,[1],23.8 µM (active)
same,EC50,[2],> 180 µM (inactive)
same,EC50,[3],> 150 µM (inactive)
Nc1cc2ccncc2c2ccccc12,AC50,[4],9.97 µM (active)
same,AC50,[5],1.23 µM (active)
same,AC50,[6],11.8 µM (active)
same,AC50,[7],14.2 µM (active)
O=C1C(Cl)=C(NC(=O)c2ccccc2)C(=O)C(Cl)=C1NC(=O)c1ccccc1,EC50,[8],2.13 µM (active)
same,EC50,[9],2.78 µM (active)
same,IC50,[10],> 66.6 µM (inactive)
same,IC50,[11],17.3 µM (active)
same,CC50,[12],29.5 µM (active)
same,IC50,[13],4.97 µM (active)
same,IC50,[14],3.53 µM (active)
same,IC50,[15],44.5 µM (inactive)
same,IC50,[16],> 66 µM (inactive)
same,IC50,[17],6.06 µM (active)
CNC(=O)CCc1nc(-c2ccc(Cl)cc2)no1,IC50,[18],> 80 µM (inactive)
same,IC50,[19],> 80 µM (inactive)
same,IC50,[20],> 80 µM (inactive)
OC(CNCc1ccc(Cl)c(Cl)c1)c1ccccc1 (stereo not drawn),EC50,[21],> 112 µM (not active)
same,EC50,[22],19 µM (active)
same,IC50,[23],14.5 µM (active)
same,IC50,[24],9.81 µM (active)
CC(C)C(=O)Nc1cccc(C(=O)OCC(=O)c2ccc(Cl)cc2Cl)c1,EC50,[25],> 40 µM (inactive)
same,IC50,[26],11.3 µM (not active)
same,IC50,[27],> 40 µM (not active)
same,IC50,[28],> 111 µM (not active)
